# Assays:
# [1] = target: purified carbonic anhydrase (Homo sapiens, UniProt P00918); experiment: Enzymatic carbonic anhydrase inhibition assay (modification of Maren's micromethod); assay type: biochemical; settings: relative to acetazolamide control = 100%
# Protocol: CAI efficacy and potency are assessed using an enzymatic method. […] Essentially, a reaction volume of 0.8 mL containing a carbonate/bicarbonate buffer, phenol red, purified carbonic anhydrase, and inhibitor is maintained at 0° and saturated with CO2 by constant bubbling. The time required for acidification to a color change endpoint is monitored as the dependent variable.
# [2] = topical CAI, lowering of IOP; cited from earlier work
# [3] = oral administration; cited from earlier work
Relative CA inhibition Potency [1],SMILES,also measured
22%,NS(=O)(=O)c1nnc(NC(CCC(=O)O)C(=O)O)s1 (stereo not drawn) [Example 3],
20%,NS(=O)(=O)c1nnc(NC(CCCC(=O)O)C(=O)O)s1 (stereo not drawn) [Example 4],
48%,NS(=O)(=O)c1nnc(NC(CC(=O)O)C(=O)O)s1 (stereo not drawn) [Example 2],

# The remaining lines, values behind:
SMILES,Relative CA inhibition Potency [1],also measured
NS(=O)(=O)c1nnc(NC(CCC(=O)O)CC(=O)O)s1 (stereo not drawn) [Example 5],60%,
Nc1ccc2nc(S(N)(=O)=O)sc2c1 [aminozolamide],,efficacy in clinical trial [2]: partially effective
"CC(=O)Nc1nnc(S(N)(=O)=O)s1 [acetazolamide, 2-acetylamino-1,3,4-thiadiazole-5-sulfonamide]",,effect on IOP [3]: decrease IOP

# Source: US5055480A, “Topically active ocular gem-diacylthiadiazole sulfonamide carbonic anhydrase inhibitors” (Research Corporation Technologies, Inc., priority 1990, dated 1991)
